Some test systems named below: A498 renal; HCT-116 colon; HOP-92 NSCLC; HS 578T breast; KM12 colon; MDA-MB-231 breast; NCI-H460 lung; RPMI-8226 leukemia; SF-539 CNS; SK-OV-3 ovarian; SN12C renal; SNB-75 CNS; SR leukemia.
Common to all, as to experiment: NCI-60 cell line screen, 48 h

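All cell lines were grown in 96-well plates and treated with compound for 48 hours. GI50 = concentration required for 50% inhibition of growth. Definition used: TGI = concentration required for complete inhibition of growth.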 Bounds are passed on as bounds.

For `O=C1NC(=O)C2(CCCCCC2)N1`, the TGI in the test on A498 renal, with HCT-116 colon, with HOP-92 NSCLC, in the test on HS 578T breast, with KM12 colon and with MDA-MB-231 breast was over 100 µM in each case. The TGI in the test with NCI-H460 lung, in the test with RPMI-8226 leukemia, in the test on SF-539 CNS, in the test on SK-OV-3 ovarian, in the test with SN12C renal and in the test with SNB-75 CNS was over 100 µM throughout.

On to `CC1CC[C@@]2(OC1)OC1CC3C4CCC5C[C@@H](OC6OC(CO)C(OC7OC(CO)C(O)C(OC8OC(CO)C(O)C(OC9OC(CO)C(O)C(O)C9O)C8O)C7OC7OC(CO)C(O)C(O)C7O)C(O)C6O)[C@H](O)C[C@]5(C)C4CC[C@]3(C)C1[C@@H]2C` (stereo not given in full), for which the TGI with A498 renal, with HCT-116 colon, in the test on HOP-92 NSCLC, in the test on HS 578T breast, in the test on KM12 colon and with MDA-MB-231 breast was over 80.5 µM in each case. For the same molecule, the TGI in the test on NCI-H460 lung, in the test with SF-539 CNS, with SK-OV-3 ovarian, with SN12C renal and in the test with SNB-75 CNS was over 80.5 µM each time.

As to `O=c1oc2ccccc2c(O)c1/C=N/C(=S)NCCc1ccccc1`, the TGI in the test on HCT-116 colon was over 100 µM; in the test on HOP-92 NSCLC it was over 74.7 µM; with HS 578T breast, over 100 µM; with KM12 colon, over 100 µM; with MDA-MB-231 breast it was over 100 µM; in the test on NCI-H460 lung it was over 70.3 µM. Further, the TGI in the test with RPMI-8226 leukemia is 89.3 µM; in the test with SF-539 CNS, over 71.1 µM; in the test with SK-OV-3 ovarian, over 63.8 µM; in the test on SN12C renal, over 100 µM; in the test on SNB-75 CNS it was over 87.5 µM; in the test with SR leukemia, 41.7 µM.

Turning to `CC(NC(=O)c1ccccc1)NC(=O)C(C)C(=O)Nc1ccccc1` (stereo not given), the TGI with HCT-116 colon, in the test on HOP-92 NSCLC, in the test with HS 578T breast, in the test on KM12 colon, in the test on MDA-MB-231 breast and in the test on NCI-H460 lung was over 100 µM each time. Besides, the TGI in the test on RPMI-8226 leukemia, in the test on SF-539 CNS, with SK-OV-3 ovarian, in the test with SN12C renal, with SNB-75 CNS and with SR leukemia was over 100 µM each time.

For `CCc1n[nH]c(=O)n1/N=C/c1ccc(C)cc1`, the TGI in the test with A498 renal is over 100 µM; in the test on HCT-116 colon, over 100 µM; with HOP-92 NSCLC, over 100 µM; in the test with HS 578T breast, 44.3 µM; in the test on KM12 colon, over 100 µM; in the test with MDA-MB-231 breast, over 100 µM. Further, the TGI in the test on NCI-H460 lung, in the test with RPMI-8226 leukemia, with SF-539 CNS, in the test on SK-OV-3 ovarian and with SN12C renal was over 100 µM in each case.

As to `c1ccc(CNCCCCNCCCNCc2ccccc2)cc1`, the TGI in the test on HCT-116 colon is 32.2 µM; in the test on HOP-92 NSCLC, 25.3 µM; in the test on HS 578T breast it was 29.7 µM; with KM12 colon, 40.5 µM; with MDA-MB-231 breast it was 33.2 µM; with NCI-H460 lung it was 30.2 µM. Further, the TGI in the test with RPMI-8226 leukemia was over 100 µM; in the test on SK-OV-3 ovarian, over 100 µM; with SN12C renal, 36.4 µM; in the test with SNB-75 CNS, 49.4 µM; in the test with SR leukemia it was 56.1 µM.

Turning to `Clc1cc(Cl)cc(C2ON=C(c3ccccc3)N2C23CC4CC(CC(C4)C2)C3)c1` (stereo not given), the TGI in the test with A498 renal, with HCT-116 colon, in the test on HOP-92 NSCLC, with HS 578T breast, in the test with KM12 colon and in the test with MDA-MB-231 breast was over 10 µM in each case. The TGI with NCI-H460 lung, with RPMI-8226 leukemia, in the test with SF-539 CNS, with SK-OV-3 ovarian, in the test on SN12C renal and in the test on SNB-75 CNS was over 10 µM each time.

Regarding `CCC[C@H](NS(=O)c1ccc(C)cc1)C(C(=O)OCC)=C(c1ccccc1)c1ccccc1` (stereo not given in full), the TGI was 46 µM with A498 renal; 27.4 µM with HCT-116 colon; 33 µM with HOP-92 NSCLC; 71.2 µM in the test on HS 578T breast; 37.8 µM in the test with KM12 colon; over 100 µM in the test with MDA-MB-231 breast. In addition, the TGI in the test on NCI-H460 lung is 36.5 µM; in the test with RPMI-8226 leukemia, 55.8 µM; in the test with SF-539 CNS it was 48.5 µM; in the test on SK-OV-3 ovarian it was over 100 µM; in the test on SN12C renal it was 41.7 µM; in the test on SNB-75 CNS, 54.2 µM.

Consider `Cc1nc2c(=O)n(-c3ccccc3)c3ccccc3c2o1`, for which the TGI in the test on A498 renal, in the test with HCT-116 colon, in the test on HOP-92 NSCLC, in the test with HS 578T breast, in the test on KM12 colon and in the test with MDA-MB-231 breast was over 100 µM each time. Further, the TGI in the test on NCI-H460 lung, in the test with RPMI-8226 leukemia, in the test with SF-539 CNS, with SK-OV-3 ovarian, in the test on SN12C renal and in the test on SNB-75 CNS was over 100 µM throughout.

With `CC(=O)NC(c1nc2cc(C)c(C)cc2[nH]1)c1nc2cc(C)c(C)cc2[nH]1`, the TGI in the test with A498 renal came out at 35.4 µM; in the test on HCT-116 colon it was 53.7 µM; with HOP-92 NSCLC, 43.3 µM; in the test on HS 578T breast, 79.2 µM; in the test on KM12 colon it was 34.2 µM; in the test with MDA-MB-231 breast, 76 µM. For the same molecule, the TGI in the test on NCI-H460 lung was 32.8 µM; in the test with RPMI-8226 leukemia, 46.4 µM; with SF-539 CNS, 30.5 µM; with SK-OV-3 ovarian, 71.9 µM; with SN12C renal it was 77.4 µM; in the test with SNB-75 CNS it was 50.7 µM.

`Cc1nc(N/N=C/c2ccccc2Cl)[nH]c(=O)c1CCO`: the TGI in the test with HCT-116 colon is over 100 µM; in the test on HOP-92 NSCLC, 57.3 µM; with HS 578T breast, 81.1 µM; with KM12 colon it was over 100 µM; with MDA-MB-231 breast it was over 100 µM; in the test with NCI-H460 lung, over 100 µM. Also, the TGI was over 100 µM with RPMI-8226 leukemia; over 100 µM in the test with SF-539 CNS; 43.4 µM with SK-OV-3 ovarian; over 100 µM in the test with SN12C renal; 41.4 µM in the test on SNB-75 CNS; over 100 µM with SR leukemia.

For `COc1cc2cccc(N)c2cc1OC`, the TGI in the test on A498 renal, in the test with HCT-116 colon, in the test with HS 578T breast, in the test with KM12 colon, with MDA-MB-231 breast and in the test on NCI-H460 lung was over 100 µM throughout. Also, the TGI with RPMI-8226 leukemia, in the test with SF-539 CNS, in the test on SK-OV-3 ovarian, in the test with SN12C renal, with SNB-75 CNS and in the test on SR leukemia was over 100 µM in each case.

As for `[O-][n+]1ccccc1S`, the TGI with A498 renal was over 100 µM; with HCT-116 colon it was 4.5 µM; in the test with HOP-92 NSCLC, over 100 µM; in the test on HS 578T breast, 56.4 µM; in the test on KM12 colon it was 20.3 µM; with MDA-MB-231 breast, over 100 µM. The TGI in the test with NCI-H460 lung is 5.21 µM; in the test with RPMI-8226 leukemia, 6.47 µM; with SF-539 CNS, over 100 µM; in the test on SK-OV-3 ovarian it was over 100 µM; with SN12C renal, over 100 µM; in the test on SNB-75 CNS it was over 100 µM. In addition, the GI50 is 2910 nM in the test on HS 578T breast and 6.73 µM with MDA-MB-231 breast.

With `CCN1C(=O)C(C)S/C1=N\NC(=O)CSc1nc2ccccc2c(=O)n1CC` (stereo not given), the TGI in the test with A498 renal was over 100 µM; with HCT-116 colon it was over 100 µM; in the test with HS 578T breast it was over 100 µM; with KM12 colon, over 100 µM; with MDA-MB-231 breast, over 100 µM; with NCI-H460 lung it was 20.4 µM. Besides, the TGI in the test with RPMI-8226 leukemia, in the test on SF-539 CNS, with SK-OV-3 ovarian, in the test with SN12C renal, in the test on SNB-75 CNS and in the test with SR leukemia was over 100 µM in each case.

In the case of `CC(=O)Nc1ccc2[nH]c(-c3cccc(Cl)c3)cc(=O)c2c1`, the TGI in the test on HOP-92 NSCLC was over 100 µM; with HS 578T breast, over 100 µM; with KM12 colon, over 100 µM; with MDA-MB-231 breast it was over 100 µM; in the test with RPMI-8226 leukemia, over 100 µM; in the test on SF-539 CNS, 30 µM. Further, the TGI in the test with SK-OV-3 ovarian is 68.5 µM; in the test with SN12C renal it was over 100 µM; with SNB-75 CNS, over 100 µM; in the test on SR leukemia, over 100 µM.

Take `CC(=O)Oc1ccccc1/C=C/C(=O)/C=C/c1ccccc1OC(C)=O`: the TGI with A498 renal is 4.01 µM; in the test with HCT-116 colon, 0.973 µM; in the test with HOP-92 NSCLC, 10.7 µM; in the test on HS 578T breast it was over 51.9 µM; in the test on KM12 colon it was 3.06 µM; with MDA-MB-231 breast, 6.08 µM. The TGI with NCI-H460 lung is 6.48 µM; in the test with RPMI-8226 leukemia, 1.84 µM; with SF-539 CNS, 3.33 µM; in the test with SK-OV-3 ovarian, 13.6 µM; in the test with SN12C renal it was 4.07 µM; with SNB-75 CNS, 5.95 µM.

With `O=C(Nc1ccccc1)N(C1=NCC(CI)S1)c1ccc(F)cc1F` (stereo not given), the TGI in the test on HCT-116 colon is over 100 µM; with HOP-92 NSCLC, 51.1 µM; with HS 578T breast it was over 100 µM; in the test with KM12 colon it was over 100 µM; with MDA-MB-231 breast, 78.4 µM; in the test on RPMI-8226 leukemia, over 100 µM. Moreover, the TGI is over 100 µM in the test on SF-539 CNS; over 100 µM with SK-OV-3 ovarian; over 100 µM in the test on SN12C renal; over 100 µM in the test with SNB-75 CNS; 65.7 µM with SR leukemia.
